The test system of assay [1] is Diaprepes abbreviatus. The assay is described as follows: Antifeedant activity against Diaprepes abbreviatus in compound treated healthy romaine lettuce plants assessed as area consumed from leaf disk at 48 g/l by choice tests (1.47 +/- 0.1 cm'2). In kind it is functional.
Assay [2] deals with Schistocerca americana. Kind of assay: Antifeedant activity against Schistocerca americana in compound treated healthy romaine lettuce plants assessed as area consumed from leaf disk at 48 g/l by choice tests (1.88 +/- 0.2 cm'2). Format: functional.
Assay [3] relates to Diaprepes abbreviatus. Kind of assay: Antifeedant activity against Diaprepes abbreviatus in compound treated Citrus paradisi MacFad (Rutaceae) potted plants assessed as reduction in leaf consumption measured under 4 hr sunlight exposure at 5.6 ml/l by No-choice tests. Format: functional, organism-based.
Assay [4] has as its system Diaprepes abbreviatus. The assay is described as follows: Antifeedant activity against Diaprepes abbreviatus in compound treated healthy romaine lettuce plants assessed as area consumed from leaf disk at 48 g/l by No-choice tests (2.51 +/- 0.2 cm'2). In kind it is functional.
The test system of assay [5] is Diaprepes abbreviatus. The assay is described as follows: Antifeedant activity against Diaprepes abbreviatus in compound treated Citrus paradisi MacFad (Rutaceae) potted plants assessed as reduction in leaf consumption measured under 12 hr sunlight exposure at 5.6 ml/l by No-choice tests. Format: functional, organism-based.
Assay [6] deals with Diaprepes abbreviatus. The assay is described as follows: Antifeedant activity against Diaprepes abbreviatus in compound treated Citrus paradisi MacFad (Rutaceae) potted plants assessed as reduction in leaf consumption measured under 8 hr sunlight exposure at 5.6 ml/l by No-choice tests. Format: functional, organism-based.
Assay [7] has as its system Diaprepes abbreviatus. The assay is described as follows: Antifeedant activity against Diaprepes abbreviatus in compound treated Citrus paradisi MacFad (Rutaceae) potted plants assessed as reduction in leaf consumption measured under 12 hr sunlight exposure at 18 g/l by No-choice tests. Format: functional, organism-based.
Assay [8] deals with Diaprepes abbreviatus. The assay is described as follows: Antifeedant activity against Diaprepes abbreviatus in compound treated Citrus paradisi MacFad (Rutaceae) potted plants assessed as reduction in leaf consumption measured under 4 hr sunlight exposure at 18 g/l by No-choice tests. In kind it is functional, organism-based.
In assay [9] the test system is Schistocerca americana. Kind of assay: Antifeedant activity against Schistocerca americana in compound treated Citrus paradisi MacFad (Rutaceae) potted plants assessed as area consumed from leaf disk measured under different 12 hr sunlight exposure at 18 g/l by No-choice tests. In kind it is functional, organism-based.
In assay [10] the test system is Diaprepes abbreviatus. Kind of assay: Antifeedant activity against Diaprepes abbreviatus in compound treated Citrus paradisi MacFad (Rutaceae) potted plants assessed as reduction in leaf consumption measured under 8 hr sunlight exposure at 18 g/l by No-choice tests. In kind it is functional, organism-based.
Assay [11] relates to Diaprepes abbreviatus. Kind of assay: Antifeedant activity against Diaprepes abbreviatus in compound treated healthy romaine lettuce plants assessed as area consumed from leaf disk at 18 g/l by No-choice tests (2.48 +/- 0.1 cm'2). In kind it is functional.
The test system of assay [12] is Schistocerca americana. The assay is described as follows: Antifeedant activity against Schistocerca americana in compound treated Citrus paradisi MacFad (Rutaceae) potted plants assessed as area consumed from leaf disk measured under different 4 hr sunlight exposure at 18 g/l by No-choice tests. Format: functional, organism-based.
For assay [13], the system named is Schistocerca americana. Kind of assay: Antifeedant activity against Schistocerca americana in compound treated healthy romaine lettuce plants assessed as area consumed from leaf disk at 18 g/l by No-choice tests (3.14 +/- 0.1 cm'2). In kind it is functional.
Assay [14] relates to Schistocerca americana. Kind of assay: Antifeedant activity against Schistocerca americana in compound treated healthy romaine lettuce plants assessed as area consumed from leaf disk at 18 g/l by choice tests (2.28 +/- 0.1 cm'2). Format: functional.
Assay [15] relates to Schistocerca americana. The assay is described as follows: Antifeedant activity against Schistocerca americana in compound treated Citrus paradisi MacFad (Rutaceae) potted plants assessed as area consumed from leaf disk measured under different 8 hr sunlight exposure at 18 g/l by No-choice tests. Format: functional, organism-based.
For assay [16], the system named is Diaprepes abbreviatus. Kind of assay: Antifeedant activity against Diaprepes abbreviatus in compound treated healthy romaine lettuce plants assessed as area consumed from leaf disk at 18 g/l by choice tests (1.19 +/- 0.1 cm'2). In kind it is functional.
Assay [17] has as its system Schistocerca americana. Kind of assay: Antifeedant activity against Schistocerca americana in compound treated Citrus paradisi MacFad (Rutaceae) potted plants assessed as area consumed from leaf disk measured under 8 hr sunlight exposure at 5.6 ml/l by No-choice tests. Format: functional, organism-based.
In assay [18] the test system is Schistocerca americana. Kind of assay: Antifeedant activity against Schistocerca americana in compound treated Citrus paradisi MacFad (Rutaceae) potted plants assessed as area consumed from leaf disk measured under 4 hr sunlight exposure at 18 g/l by No-choice tests. In kind it is functional, organism-based.
For assay [19], the system named is Diaprepes abbreviatus. The assay is described as follows: Antifeedant activity against Diaprepes abbreviatus in compound treated healthy romaine lettuce plants assessed as area consumed from leaf disk at 5.6 ml/l by No-choice tests (1.40 +/- 0.1 cm'2). In kind it is functional.
Assay [20] has as its system Schistocerca americana. The assay is described as follows: Antifeedant activity against Schistocerca americana in compound treated healthy romaine lettuce plants assessed as area consumed from leaf disk at 5.6 ml/l by choice tests (2.62 +/- 0.1 cm'2). In kind it is functional.
In assay [21] the test system is Schistocerca americana. Kind of assay: Antifeedant activity against Schistocerca americana in compound treated Citrus paradisi MacFad (Rutaceae) potted plants assessed as area consumed from leaf disk measured under 4 hr sunlight exposure at 5.6 ml/l by No-choice tests. In kind it is functional, organism-based.
Assay [22] has as its system Diaprepes abbreviatus. Kind of assay: Antifeedant activity against Diaprepes abbreviatus in compound treated healthy romaine lettuce plants assessed as area consumed from leaf disk at 5.6 ml/l by choice tests (1.45 +/- 0.1 cm'2). In kind it is functional.
Assay [23] concerns Schistocerca americana. Kind of assay: Antifeedant activity against Schistocerca americana in compound treated Citrus paradisi MacFad (Rutaceae) potted plants assessed as area consumed from leaf disk measured under 8 hr sunlight exposure at 18 g/l by No-choice tests. In kind it is functional, organism-based.
The test system of assay [24] is Schistocerca americana. The assay is described as follows: Antifeedant activity against Schistocerca americana in compound treated healthy romaine lettuce plants assessed as area consumed from leaf disk at 5.6 ml/l by No-choice tests (3.10 +/- 0.1 cm'2). In kind it is functional.
The subject of assay [25] is Diaprepes abbreviatus. The assay is described as follows: Antifeedant activity against Diaprepes abbreviatus in compound treated healthy romaine lettuce plants assessed as area consumed from leaf disk at 31.3 ml/l by choice tests (1.39 +/- 0.1 cm'2). In kind it is functional.
Assay [26] deals with Schistocerca americana. Kind of assay: Antifeedant activity against Schistocerca americana in compound treated healthy romaine lettuce plants assessed as area consumed from leaf disk at 31.3 ml/l by choice tests (1.79 +/- 0.2 cm'2). In kind it is functional.

Active and inactive are the calls of the source. No cut-off for these calls is given here.

Consider `C=C(C)[C@H]1Cc2c(ccc3c2O[C@@H]2COc4cc(OC)c(OC)cc4[C@@H]2C3=O)O1` [ROTENONE], for which the Activity with Diaprepes abbreviatus [1] is 0.24 cm2; in the assay on Schistocerca americana [2] it was 1.64 cm2; in the assay with Diaprepes abbreviatus [4] it was 2.42 cm2. Further, the result in the assay with Diaprepes abbreviatus [3], with Diaprepes abbreviatus [5] and with Diaprepes abbreviatus [6] was inactive.
In the case of `CC(C)[C@@]1(O)[C@@H](OC(=O)c2cc[nH]c2)[C@@]2(O)[C@]3(C)C[C@@]4(O)O[C@@]5([C@H](O)[C@@H](C)CC[C@]35O)[C@@]2(O)[C@@]41C` [RYANODINE], the result in the assay with Diaprepes abbreviatus [7], in the assay with Diaprepes abbreviatus [8], in the assay with Schistocerca americana [9], in the assay on Diaprepes abbreviatus [10], in the assay with Schistocerca americana [12] and in the assay on Schistocerca americana [15] was inactive. Besides, the Activity with Diaprepes abbreviatus [11] came to 1.46 cm2; in the assay on Schistocerca americana [13] it was 2.35 cm2; in the assay on Schistocerca americana [14], 0.76 cm2; with Diaprepes abbreviatus [16], 0.48 cm2.
Consider `C/C=C(\C)C(=O)O[C@H]1C[C@@H](OC(C)=O)[C@@]2(C(=O)OC)CO[C@H]3[C@@H](O)[C@@](C)([C@]45O[C@@]4(C)[C@@H]4C[C@H]5O[C@@H]5OC=C[C@@]54O)[C@H]4[C@]1(CO[C@]4(O)C(=O)OC)[C@@H]32` [AZADIRACHTIN A], for which the result in the assay with Schistocerca americana [17] and in the assay with Schistocerca americana [23] was Active. The outcome with Schistocerca americana [18], in the assay on Schistocerca americana [9], in the assay on Schistocerca americana [21], with Schistocerca americana [12] and in the assay on Schistocerca americana [15] was inactive. Moreover, the Activity in the assay on Diaprepes abbreviatus [19] amounted to 1.8 cm2; in the assay on Schistocerca americana [20], 0.4 cm2; in the assay with Diaprepes abbreviatus [22] it was 0.74 cm2; in the assay with Schistocerca americana [24], 0.29 cm2.
Regarding `COc1cc(CNC(=O)CCCC/C=C/C(C)C)ccc1O` [CAPSAICIN], the Activity in the assay on Diaprepes abbreviatus [25] is recorded as 1.02 cm2; in the assay on Schistocerca americana [26] it was 1.08 cm2.

The values above are taken from ChEMBL document CHEMBL3046692, “Antifeedant effect of commercial chemicals and plant extracts against Schistocerca americana (Orthoptera: Acrididae) and Diaprepes abbreviatus (Coleoptera: Curculionidae)” (2011).
